# According to paper PMC10093836, “Stabilization of the Dimeric State of SARS-CoV-2 Main Protease by GC376 and Nirmatrelvir” (International Journal of Molecular Sciences, 2023):
# Assays:
# [1] = molecular target: SARS-CoV-2 Mpro (Nsp5, 3CLpro) (Severe acute respiratory syndrome coronavirus 2, UniProt P0DTD1); experiment: biochemical; type: binding; settings: for Binding to Mpro (MST), in words: no binding curve produced
# cells = test system: cells; design: method as in PMID 32841477; settings: literature values; cited from earlier work
# SARS-CoV-2 protease = molecular target: SARS-CoV-2 protease; design: method as in PMID 34726479, PMID 35233052, PMID 34653812; settings: literature; read-out: Inhibition constant (Ki); cited from earlier work
# Mpro = settings: read-out: IC50 for Mpro; literature data; cited from earlier work
smiles,measurement,setting,value
Cc1cccc(C)c1OCC(=O)N[C@@H](Cc1ccccc1)[C@@H](O)C[C@H](Cc1ccccc1)NC(=O)[C@H](C(C)C)N1CCCNC1=O [Lopinavir],Kd,[1],> 200000 nM
same,"Binding to Mpro (MST), in words",[1],do not bind Mpro effectively
CCCCCCNC(=O)n1cc(F)c(=O)[nH]c1=O [Carmofur],EC50,cells,24000 ± 3000 nM
"CC(C)(C)[C@H](NC(=O)C(F)(F)F)C(=O)N1C[C@H]2[C@@H]([C@H]1C(=O)N[C@H](C#N)C[C@@H]1CCNC1=O)C2(C)C [NMV, Nirmatrelvir]",Ki,SARS-CoV-2 protease,3 nM
"CC(C)c1nc(CN(C)C(=O)N[C@H](C(=O)N[C@@H](Cc2ccccc2)C[C@H](O)[C@H](Cc2ccccc2)NC(=O)OCc2cncs2)C(C)C)cs1 [RTV, ritonavir]","Binding to Mpro (MST), in words",[1],do not bind Mpro effectively
CC(C)C[C@H](NC(=O)OCc1ccccc1)C(=O)N[C@@H](CC1CCNC1=O)C(O)S(=O)(=O)O (stereo partly shown) [GC376],IC50,Mpro,190 ± 40 nM
Cc1c(O)cccc1C(=O)N[C@@H](CSc1ccccc1)[C@H](O)CN1C[C@H]2CCCC[C@H]2C[C@H]1C(=O)NC(C)(C)C [Nelfinavir],"Binding to Mpro (MST), in words",[1],do not bind Mpro effectively
